Reference: US5968526A, “T cell epitopes of the major allergens from Dermatophagoides (house dust mite)” (Immulogic Pharamaceutical Corporation, priority 1995, dated 1999)

Tested on: T cell lines primed in vitro to Der p II
Assay: secondary proliferation of Der p II-primed T cell lines (Examples VIII, X, XI)
Type: cell-based, human
Details: Der p II T-cell map and analogs
Procedure, shortened: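 PBMC from house dust mite-allergic patients primed in vitro with native or recombinant Der p II at 20 μg/ml (or recombinant at 3 μg/ml), with x-irradiated (3500 Rads) autologous PBMC as antigen-presenting cells. Lines then challenged with Der p II-derived peptides; proliferation expressed as S.I., ranked sum scoring top three responses 3, 2, 1.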

Row | Substance | T-cell reactivity (DPII-22 series development)
1 | DP II-22.14: DKELEAVFEANQNTKTAKAE; unique peptide | almost the same T-cell reactivity as the "parent" peptide
2 | DP II-22: QLEAVFEANQNTKTAKIEIKASIDGLEV | exhibits most of the reactivity found in the individual peptides
